US4056626A, “Pharmaceutical composition containing benzofuran derivative” (Kakenyaku Kako Co., Ltd., priority 1971, dated 1977)
“And” between values parts separate entries of the source, which are not always exact repeats. Identical values can stand only once. Like-named read-outs stand apart in the source and are kept apart here.

Legend:
[1] = tested on: isoproterenol antagonism concerning myocardial contractile force, heart rate and diastolic blood pressure; test: isoproterenol antagonism in anesthetized dogs; assay type: in vivo; details: for ED50: Canis lupus familiaris, iv; for Inhibition of decrease in diastolic blood pressure, relative activity / Inhibition of increase in heart rate, relative activity / Inhibition of increase in myocardial contractile force, relative activity: activity of Propranolol is 1
Description: Male and female dogs weighing 9 kg. to 20 kg. were employed. The dogs were anesthetized with barbital sodium (30 mg./kg.) given intraperitoneally. The compounds to be tested and isoproterenol were administered in femoral vein through a canula.
The maximum increase was adopted as the increase in myocardial contractile force. The increase after 1 minute from the administration of isoproterenol was adopted as the increase in heart rate. The maximum decrease was adopted as the decrease in diastolic blood pressure. Then, the compounds to be tested were administered in a dose of 0.01 to 100 μg./kg. After an interval of 2 minutes, isoproterenol was again administered in a dose of 0.3 μg./kg. After the second administration of isoproterenol, the maximum increase in myocardial contractile force, the increase after 1 minute from the administration of isoproterenol in heart rate and the maximum decrease in diastolic blood pressure were again determined.

[2] = tested on: isoproterenol antagonism concerning myocardial contractile force and heart rate in isolated guinea-pig atria; test: isoproterenol antagonism in isolated guinea-pig atria; details: for Inhibition of increase in heart rate ED 50 / Inhibition of increase in myocardial contractile force ED 50: 37° C., isoproterenol 1 × 10^-8 g./ml., 50% inhibition; for Inhibition of increase in heart rate, relative activity / Inhibition of increase in myocardial contractile force, relative activity: activity of Propranolol is 1
Description: Isolated guinea-pig atrium was mounted in a chamber containing Ringer-Lockesolution (37° C.), through which a mixed gas of 95% O2 and 5% CO2 was continuously bubbled. Isoproterenol was added to the solution at a concentration of 1 × 10^-^8 g./ml.

[3] = in vivo; details: mouse, iv
[4] = tested on: tachycardia in hyperthyroidism; test: clinical study: tachycardia in hyperthyroidism, single administration; assay type: in vivo, patients; details: Mercazol reference, oral 30 mg./day, 14 days
Description: A. A therapeutic effect of the present pharmaceutical composition to tachycardia in hyperthyroidism in case of its signle administration was investigated.
To 12 patients of hyperthyroidism shown in Table VI was orally administered the active ingredient, 2-acetyl-7-(2-hydroxy-3-isopropylaminopropoxy)benzofuran hydrochloride, contained in the capsules obtained in Example 47 in a dose of 30 mg./day (3 times per day) for 14 days. The treatment evaluation was determined according to the following standard:
For reference, a therapeutic effect of an antihyperthyroidism medicament to tachycardia in hyperthyroidism in case of its single administration was investigated.
To 12 patients of hyperthyroidism shown in Table VII was orally administered Mercazol which has been widely employed as an antihyperthyroidism medicament in a dose of 30 mg./day for 14 days.

[5] = anesthetized dogs, femoral vein, isoproterenol 0.3 μg./kg., 50% inhibition, read-out: Inhibition of decrease in diastolic blood pressure ED50
[6] = anesthetized dogs, femoral vein, isoproterenol 0.3 μg./kg., 50% inhibition, read-out: Inhibition of increase in heart rate ED50
[7] = anesthetized dogs, femoral vein, isoproterenol 0.3 μg./kg., 50% inhibition, read-out: Inhibition of increase in myocardial contractile force ED50

SMILES	ED50 [1, 5] [µg/kg]	ED50 [1, 6] [µg/kg]	ED50 [1, 7] [µg/kg]	Inhibition of decrease in diastolic blood pressure, relative activity ([1]; anesthetized dogs)	Inhibition of increase in heart rate, relative activity ([1]; anesthetized dogs)	Inhibition of increase in myocardial contractile force, relative activity ([1]; anesthetized dogs)	Inhibition of increase in heart rate ED 50 [2] [µg/mL]	Inhibition of increase in myocardial contractile force ED 50 [2] [µg/mL]	Inhibition of increase in heart rate, relative activity [2]	Inhibition of increase in myocardial contractile force, relative activity [2]	LD50 at 24 h [3] [µg/kg]	Pulse rate after treatment, average ([4]; 12 patients, average before treatment 111.3, standard deviation 8.6, in beats/min (unit assumed))	Pulse rate difference, average ([4]; 12 patients, standard deviation printed 0.6) [beats/min]	Pulse rate difference ([4]; before minus after, per patient, in beats/min (unit assumed))	Pulse rate after treatment ([4]; per patient, in beats/min (unit assumed))	ED50 ([1]; read-out: Inhibition of decrease in diastolic blood pressure ED50) [µg/kg]	ED50 ([1]; read-out: Inhibition of increase in heart rate ED50) [µg/kg]	ED50 ([1]; read-out: Inhibition of increase in myocardial contractile force ED50) [µg/kg]
CC(=NC(C)C)c1cc2cccc(OCC(O)CNC(C)C)c2o1 (stereo not shown) [Compound No. 1, 2-(1-isopropyliminoethyl)-7-(2-hydroxy-3-isopropylaminopropoxy)benzofuran]	0.3	0.42	0.6	3.1	25.0	15.9	0.014	0.0017	7.1	5.9	65000 to 70000	–	–	–	–	–	–	–
CC(=O)c1cc2c(OCC(O)CNC(C)(C)C)cccc2o1 (stereo not shown) [Compound No. 2, 2-acetyl-4-(2-hydroxy-3-tert.-butylaminopropoxy)benzofuran]	0.92	35.2	8.62	1.0	0.3	1.1	0.045	0.017	2.2	0.6	35000 to 40000	–	–	–	–	–	–	–
CC(=O)c1cc2cccc(OCC(O)CNC(C)C)c2o1 (stereo not shown) [Compound No. 3, 2-acetyl-7-(2-hydroxy-3-isopropylaminopropoxy)benzofuran]	0.18	0.52	3.4	5.3	21.0	2.8	0.04	0.005	2.5	2.0	100000 to 105000	–	–	–	–	–	–	–
CC(=O)c1cc2cccc(OCC(O)CNC(C)(C)C)c2o1 (stereo not shown) [Compound No. 4, 2-acetyl-7-(2-hydroxy-3-tert.-butylaminopropoxy)benzofuran]	0.72	3.5	6.33	1.3	3.0	1.5	0.033	0.004	3.0	2.5	45000 to 55000	–	–	–	–	–	–	–
CC(=NC(C)C)c1cc2c(OCC(O)CNC(C)C)cccc2o1 (stereo not shown) [Compound No. 6, 2-(1-isopropyliminoethyl)-4-(2-hydroxy-3-isopropylaminopropoxy)benzofuran]	–	0.21	5.93	30.2	50.0	1.6	0.014	0.008	7.0	1.3	45000 to 50000	–	–	–	–	–	–	–
CCC(C)NCC(O)COc1cccc2cc(C(C)=O)oc12 (stereo not shown) [Compound No. 7, 2-acetyl-7-(2-hydroxy-3-sec.-butylaminopropoxy)benzofuran]	2.35	7.07	5.59	0.4	1.5	1.7	0.067	0.0048	1.5	2.0	75000 to 80000	–	–	–	–	–	–	–
CCc1cc2c(C(C)=O)ccc(OCC(O)CNC(C)C)c2o1 (stereo not shown) [Compound No. 8, 2-ethyl-4-acetyl-7-(2-hydroxy-3-isopropylaminopropoxy)benzofuran]	1.9	0.3	6.4	0.5	35.0	1.5	0.053	0.0091	1.9	1.1	120000 to 125000	–	–	–	–	–	–	–
CCC(C)N=C(C)c1cc2cccc(OCC(O)CNC(C)CC)c2o1 (stereo not shown) [Compound No. 9, 2-(1-sec.-butyliminoethyl)-7-(2-hydroxy-3-sec.-butylaminopropoxy)benzofuran]	0.16	0.53	0.73	6.0	20.0	13.1	0.06	0.004	1.6	2.5	75000 to 80000	–	–	–	–	–	–	–
CCC(C)N=C(C)c1cc2c(OCC(O)CNC(C)CC)cccc2o1 (stereo not shown) [Compound No. 10, 2-(1-sec.-butyliminoethyl)-4-(2-hydroxy-3-sec.-butylaminopropoxy)benzofuran]	–	0.21	3.95	23.5	50.0	2.4	0.04	0.0059	2.5	1.7	60000 to 65000	–	–	–	–	–	–	–
Cn1cc[nH]c1=S [Mercazol, reference compound]	–	–	–	–	–	–	–	–	–	–	–	100.2	12	20 and 22 and 10 and 14 and 12 and 4 and 0	90 and 110 and 100 and 108 and 116	–	–	–
CC(C)NCC(O)COc1cccc2ccccc12 (stereo not shown) [Propranolol, reference compound]	–	–	–	–	–	–	–	–	–	–	–	–	–	–	–	0.94	10.6	9.5
CCOC(=O)c1cc2cccc(OCC(O)CNC(C)C)c2o1 (stereo not shown) [compound 5, 2-carbethoxy-7-(2-hydroxy-3-isopropylaminopropoxy)benzofuran]	1.57	0.21	9.5	0.6	50.0	1.0	0.029	0.0055	3.5	1.8	50000 to 55000	–	–	–	–	–	–	–
